# Biological target: T1, FXR (Homo sapiens, UniProt Q96RI1)
# T1 construct: expressed in transfected cells
# T1 sequence (Q96RI1 1-486): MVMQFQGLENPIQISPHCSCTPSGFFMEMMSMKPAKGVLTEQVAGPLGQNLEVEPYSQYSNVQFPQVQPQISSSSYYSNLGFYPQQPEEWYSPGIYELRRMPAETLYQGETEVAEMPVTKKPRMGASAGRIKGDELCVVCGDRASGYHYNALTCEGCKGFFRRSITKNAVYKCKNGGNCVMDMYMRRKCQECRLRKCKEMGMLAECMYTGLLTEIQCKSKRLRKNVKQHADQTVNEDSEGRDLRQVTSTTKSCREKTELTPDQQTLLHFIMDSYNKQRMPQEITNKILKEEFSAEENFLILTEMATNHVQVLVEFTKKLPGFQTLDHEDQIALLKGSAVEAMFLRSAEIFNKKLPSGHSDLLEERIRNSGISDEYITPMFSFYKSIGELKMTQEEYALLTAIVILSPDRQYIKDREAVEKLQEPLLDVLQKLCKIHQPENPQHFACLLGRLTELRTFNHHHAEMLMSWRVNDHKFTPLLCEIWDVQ
# Assay: FXR agonist transactivation assay (luciferase reporter)
# Type: cell-based
# Settings: transiently transfected cells, 18 h stimulation with test compound, luciferase normalized to Renilla
# Protocol: Example 21: FXR Agonist Transactivation Assay
# For the transactivation assay, cells were transiently transfected with 100 ng of reporter vector and 10 ng of expression plasmid. Forty nanograms of pGL4.74 was used as internal control for transfection efficiency. The pGEM vector was added to normalize the amounts of DNA transfected in each assay (2 μg). All transfections were performed using FuGENE HD (Roche, Mannheim, Germany) according to the manufacturer's protocol. Twenty-four hours after transfection, cells were stimulated with increasing concentrations of the test compounds for further 18 h. Control cultures receive vehicle (0.1% DMSO) alone. Luciferase values were normalized with Renilla reniformis luciferase units, for transfection efficiency.
compound,measurement,value
"CC(C)OC(=O)C1=CN(C(=O)c2ccc(Cl)c(Cl)c2)CC(C)(C)c2c1[nH]c1ncc(Cl)cc21 [Compound 9, Propan-2-yl 4-chloro-12-(3,4-dichlorobenzoyl)-14,14-dimethyl-6,8,12-triazatricyclo[7.5.0.02,7]tetradeca-1(9),2,4,6,10-pentaene-10-carboxylate]",EC50,1 to 10 µM
"COc1ccc2[nH]c3c(c2n1)C(C)(C)CN(C(=O)c1ccc(OCCN2CCOCC2)cc1)C=C3C(=O)OC(C)C [Compound 91, propan-2-yl 12-(4-(2-morpholinoethoxy)benzoyl)-14,14-dimethyl-4-(methoxy)-3,8,12-triazatricyclo[7.5.0.02,7]tetradeca-1(9),2,4,6,10-pentaene-10-carboxylate]",EC50,< 1 µM
"CC(C)OC(=O)C1=CN(C(=O)c2ccc(F)c(F)c2)CC(C)(C)c2c1[nH]c1cccnc21 [Compound 55, Propan-2-yl 12-(3,4-difluorobenzoyl)-14,14-dimethyl-3,8,12-triazatricyclo[7.5.0.02,7]tetradeca-1(9),2,4,6,10-pentaene-10-carboxylate]",EC50,< 1 µM
"COc1ccc2[nH]c3c(c2n1)C(C)(C)CN(C(=O)c1ccc(F)cc1)C=C3C(=O)OC(C)C [Compound 43, propan-2-yl 12-(4-fluorobenzoyl)-14,14-dimethyl-4-methoxy-3,8,12-triazatricyclo[7.5.0.02,7]tetradeca-1(9),2,4,6,10-pentaene-10-carboxylate]",EC50,< 1 µM
"COc1ccc2[nH]c3c(c2n1)C(C)(C)CN(C(=O)c1ccc(F)c(F)c1)C=C3C(=O)OC(C)C [Compound 42, Propan-2-yl 12-(3,4-difluorobenzoyl)-14,14-dimethyl-4-methoxy-3,8,12-triazatricyclo[7.5.0.02,7]tetradeca-1(9),2,4,6,10-pentaene-10-carboxylate]",EC50,< 1 µM
CC(C)OC(=O)C1=CN(C(=O)c2ccc(F)c(F)c2)CC(C)(C)c2c1[nH]c1cc(F)cnc21 [Compound 33],EC50,< 1 µM
"CCOC(=O)C1=CN(C(=O)c2ccc(F)c(F)c2)CC(C)(C)c2c1[nH]c1ncccc21 [Compound 58, eth-2-yl 12-(3,4-difluorobenzoyl)-14,14-dimethyl-6,8,12-triazatricyclo[7.5.0.02,7]tetradeca-1(9),2,4,6,10-pentaene-10-carboxylate]",EC50,< 1 µM
"CC(C)OC(=O)C1=CN(C(=O)c2ccc(F)c(F)c2)CC(C)(C)c2c1[nH]c1ncccc21 [Compound 57, propan-2-yl 12-(3,4-difluorobenzoyl)-14,14-dimethyl-6,8,12-triazatricyclo[7.5.0.02,7]tetradeca-1(9),2,4,6,10-pentaene-10-carboxylate]",EC50,< 1 µM
"propan-2-yl 4-chloro-12-(4-(2-morpholinoethoxy)benzoyl)-14,14-dimethyl-6,8,12-triazatricyclo[7.5.0.02,7]tetradeca-1(9),2,4,6,10-pentaene-10-carboxylate [Compound 89]",EC50,< 1 µM
"CC(C)NC(=O)C1=CN(C(=O)c2ccc(F)c(F)c2)CC(C)(C)c2c1[nH]c1cc(Cl)cnc21 [Compound 85, 3-chloro-8-(3,4-difluorobenzoyl)-N-isopropyl-10,10-dimethyl-5,8,9,10-tetrahydropyrido[2′,3′:4,5]pyrrolo[2,3-d]azepine-6-carboxamide]",EC50,< 1 µM
"CC(C)OC(=O)C1=CN(C(=O)c2ccc(F)c(F)c2)CC(C)(C)c2c1[nH]c1ncc(F)cc21 [Compound 59, propan-2-yl 4-fluoro-12-(3,4-difluorobenzoyl)-14,14-dimethyl-6,8,12-triazatricyclo[7.5.0.02,7]tetradeca-1(9),2,4,6,10-pentaene-10-carboxylate]",EC50,< 1 µM
"CCOC(=O)C1=CN(C(=O)c2ccc(F)c(F)c2)CC(C)(C)c2c1[nH]c1cccnc21 [Compound 56, eth-2-yl 12-(3,4-difluorobenzoyl)-14,14-dimethyl-3,8,12-triazatricyclo[7.5.0.02,7]tetradeca-1(9),2,4,6,10-pentaene-10-carboxylate]",EC50,< 1 µM
"CC(C)OC(=O)C1=CN(C(=O)c2ccc(F)c(F)c2)CC(C)(C)c2c1[nH]c1cc(OCCO)c(Cl)nc21 [Compound 72, Propan-2-yl 12-(3,4-difluorobenzoyl)-14,14-dimethyl-5-(2-hydroxyethoxy)-4-chloro-3,8,12-triazatricyclo[7.5.0.02,7]tetradeca-1(9),2,4,6,10-pentaene-10-carboxylate]",EC50,1 to 10 µM
"CC(C)OC(=O)C1=CN(C(=O)c2ccc(F)c(F)c2)CC(C)(C)c2c1[nH]c1ccc(OCCO)nc21 [Compound 84, Propan-2-yl 12-(3,4-difluorobenzoyl)-14,14-dimethyl-4-(2-hydroxyethoxy)-3,8,12-triazatricyclo[7.5.0.02,7]tetradeca-1(9),2,4,6,10-pentaene-10-carboxylate]",EC50,< 1 µM
"CC(C)OC(=O)C1=CN(C(=O)c2ccc(F)c(F)c2)CC(C)(C)c2c1[nH]c1ncc(Cl)cc21 [Compound 10, propan-2-yl 4-chloro-12-(3,4-difluorobenzoyl)-14,14-dimethyl-6,8,12-triazatricyclo[7.5.0.02,7]tetradeca-1(9),2,4,6,10-pentaene-10-carboxylate]",EC50,< 1 µM
"COc1nc2c3c([nH]c2cc1Cl)C(C(=O)OC(C)C)=CN(C(=O)c1ccc(F)c(F)c1)CC3(C)C [Compound 101, propan-2-yl 5-chloro-4-methoxy-12-(3,4-difluorobenzoyl)-14,14-dimethyl-3,8,12-triazatricyclo[7.5.0.02,7]tetradeca-1(9),2,4,6,10-pentaene-10-carboxylate]",EC50,< 1 µM
"CC(C)OC(=O)C1=CN(C(=O)c2ccc(F)c(F)c2)CC(C)(C)c2c1[nH]c1cc(Cl)cnc21 [Compound 22, Propan-2-yl 5-chloro-12-(3,4-difluorobenzoyl)-14,14-dimethyl-3,8,12-triazatricyclo[7.5.0.02,7]tetradeca-1(9),2,4,6,10-pentaene-10-carboxylate]",EC50,< 1 µM
"CC(C)OC(=O)C1=CN(C(=O)c2ccc(F)cc2)CC(C)(C)c2c1[nH]c1ncc(Cl)cc21 [Compound 11, propan-2-yl 4-chloro-12-(4-fluorobenzoyl)-14,14-dimethyl-6,8,12-triazatricyclo[7.5.0.02,7]tetradeca-1(9),2,4,6,10-pentaene-10-carboxylate]",EC50,1 to 10 µM
